According to patent US8309582B2, “Small molecule Bcl-Xl/Bcl-2 binding inhibitors” (The Ohio State University Research Foundation, priority 2004, dated 2012):
Where two headings read alike, the source gives them in different places.

Key:
Bcl-xL = target: T1, Bcl-xL (Homo sapiens, UniProt Q07817); assay: Competitive fluorescence polarization assay, displacement of Flu-BakBH3 peptide from Bcl-xL; type: binding
T1 construct: fused on or other part: His tag
Experimental: (§1) Competitive Fluorescence Polarization Assay. The binding affinity of the test agent to Bcl-2 and Bcl-xL was analyzed by a competitive fluorescence polarization assay, in which the ability of the agent to displace the binding of a Bak BH3-domain peptide to either Bcl-2 or Bcl-xL was determined. Flu-BakBH3, a Bak-BH3 peptide labeled at the N-terminus with fluorescein, was purchased from Genemed Synthesis (San Francisco, Calif.). C-Terminal-truncated, His-tagged Bcl-xL was purchased from EMD Biosciences (San Diego, Calif.), and soluble GST-fused Bcl-2 was obtained from Santa Cruz (Santa Cruz, Calif.). The KD determination was carried out in a dual-pathlength quartz cell with readings taken at […] at room temperature using a luminescence spectrometer according to an established procedure (17). Determination of IC50 values. Data from cell viability and FP assays were analyzed by using the CalcuSyn software (Biosoft, Ferguson, Mo.) to determine IC50 values, in which the calculation was based on the medium effect equation (18), i.e., Log(fa/fu)=m log(D)−m log(Dm) (equation 1), where fa and fu denote fraction affected and unaffected, respectively; m represents the Hill-type coefficient signifying the sigmoidicity of the dose-effect curve; D and Dm are the dose used and IC50, respectively.

Bcl-2 = Bcl-2 (Homo sapiens, UniProt P10415); assay: Competitive fluorescence polarization assay, displacement of Flu-BakBH3 peptide from Bcl-2; type: binding
Chain of Bcl-2 (P10415 whole entry): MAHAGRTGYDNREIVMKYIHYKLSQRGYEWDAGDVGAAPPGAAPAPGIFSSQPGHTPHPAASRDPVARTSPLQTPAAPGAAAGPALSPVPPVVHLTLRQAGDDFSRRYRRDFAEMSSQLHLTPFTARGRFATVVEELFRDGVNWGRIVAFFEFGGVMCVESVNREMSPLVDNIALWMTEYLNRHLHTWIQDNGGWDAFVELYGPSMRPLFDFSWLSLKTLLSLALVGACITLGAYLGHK
Experimental: as §1

PC-3 cells = assay: Cell viability analysis (MTT) in PC-3 cells; type: cell-based; conditions: Homo sapiens, PC-3, PC-3 cells, read-out: IC50 (μM) PC3
Experimental: Cell viability analysis. The effect of individual test agents on cell viability was assessed by using the MTT {[3-(4,5-dimethylthiazol-2-yl)-2,5-diphenyl-2H-tetrazolium bromide]} assay in six to twelve replicates. […] Controls received DMSO vehicle at a concentration equal to that in drug-treated cells. […] Supernatants were removed from the wells, and the reduced MTT dye was solubilized in 200 μl/well DMSO. Absorbance at 570 nm was determined on a plate reader.
(§2) Determination of IC50 values. Data from cell viability and FP assays were analyzed by using the CalcuSyn software (Biosoft, Ferguson, Mo.) to determine IC50 values, in which the calculation was based on the medium effect equation (18), i.e., Log(fa/fu)=m log(D)−m log(Dm) (equation 1), where fa and fu denote fraction affected and unaffected, respectively; m represents the Hill-type coefficient signifying the sigmoidicity of the dose-effect curve; D and Dm are the dose used and IC50, respectively.

[1] = MTT assay (IC50 for MTT, Tables 1-9); type: cell-based; conditions: cell line and unit inferred
Experimental: Cell viability analysis. The effect of individual test agents on cell viability was assessed by using the MTT {[3-(4,5-dimethylthiazol-2-yl)-2,5-diphenyl-2H-tetrazolium bromide]} assay in six to twelve replicates. Cells were seeded and incubated in 96-well, flat-bottomed plates in serum-free media for 24 h, and were exposed to various concentrations of test agents dissolved in DMSO (final concentration, 0.1%) in serum-free RPMI 1640 medium for different time intervals. Controls received DMSO vehicle at a concentration equal to that in drug-treated cells. The medium was removed, replaced by 200 μl of 0.5 mg/ml of MTT in 10% FBS-containing RPMI-1640 medium, and cells were incubated in the CO2 incubator at 37° C. for 2 h. Supernatants were removed from the wells, and the reduced MTT dye was solubilized in 200 μl/well DMSO. Absorbance at 570 nm was determined on a plate reader.
as §2

[2] = WB (IC50 for WB, Tables 1-9); type: cell-based; conditions: marker, cell line and unit inferred
Experimental: Immunoblotting. Cells in T-75 flasks were collected by scraping, and suspended in 60 μl of phosphate-buffered saline (PBS). Two μl of the suspension was taken for protein analysis using the Bradford assay kit (Bio-Rad, Hercules, Calif.). To the remaining solution was added the same volume of 2×SDS-PAGE sample loading buffer (100 mM Tris-HCl, pH 6.8, 4% SDS, 5% β-mercaptoethanol 20% glycerol, and 0.1% bromophenol blue). The mixture was sonicated briefly, and boiled for 5 min. Equal amounts of proteins were loaded onto 10% SDS-PAGE gels.
After electrophoresis, protein bands were transferred to nitrocellulose membranes in a semidry transfer cell. The transblotted membrane was washed twice with Tris-buffered saline (TBS) containing 0.1% Tween 20 (TBST). After blocking with TBST containing 5% nonfat milk for 40 min, the membrane was incubated with the appropriate primary antibody in TBST-1% nonfat milk at 4° C. overnight. All primary antibodies were diluted 1:1000 in 1% nonfat milk-containing TBST. After treatment with the primary antibody, the membrane was washed three times with TBST for a total of 15 min, followed by incubation with goat anti-rabbit or anti-mouse IgG-horseradish peroxidase conjugates (diluted 1:5000) for 1 h at room temperature and three washes with TBST for a total of 1 h. The immunoblots were visualized by enhanced chemiluminescence.

[3] = unit inferred, read-out: IC50 for inhibiting BH3-mediated protein interactions (Bcl-xL)
[4] = unit inferred, read-out: IC50 for inhibiting BH3-mediated protein interactions (Bcl-2)
[5] = inhibition of Bak BH3 peptide binding to Bcl-xL, FP, read-out: IC50 Bcl-xl/Bak
[6] = inhibition of Bak BH3 peptide binding to Bcl-2, FP, read-out: IC50 Bcl-2/Bak

T1 sequence (Q07817 1-209 limits assumed): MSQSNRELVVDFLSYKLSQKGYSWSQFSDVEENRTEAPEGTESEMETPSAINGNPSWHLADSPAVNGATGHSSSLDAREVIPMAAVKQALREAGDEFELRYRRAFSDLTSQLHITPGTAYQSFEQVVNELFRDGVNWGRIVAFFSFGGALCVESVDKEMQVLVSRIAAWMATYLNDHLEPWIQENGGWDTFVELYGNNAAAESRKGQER

IC50 (Bcl-xL; [3])	IC50 (Bcl-2; [4])	IC50 (Bcl-xL; [5])	IC50 (Bcl-2; [6])	IC50 (PC-3 cells)	IC50 [2]	SMILES	IC50 [1]
> 50 µM	> 50 µM					CCc1ccc(CCOc2ccc(CC3SC(=O)NC3=O)cc2)nc1 (centres unmarked) [PG, pioglitazone, reference compound]	
> 50 µM	> 50 µM					CN(CCOc1ccc(CC2SC(=O)NC2=O)cc1)c1ccccn1 (centres unmarked) [RG, rosiglitazone, reference compound]	
		4.8 ± 0.5 µM	7.3 ± 0.3 µM	10 ± 1.2 µM		C=CCOc1c(C)c(C)c2c(c1C)CCC(C)(COc1ccc(/C=C3\SC(=S)NC3=O)cc1)O2 (centres unmarked) [TG-3]	
		6 ± 0.5 µM	5.5 ± 0.4 µM	11 ± 0.8 µM	3 µM	C=CCOc1c(C)c(C)c2c(c1C)CCC(C)(COc1ccc(/C=C3\SC(=O)NC3=O)cc1)O2 (centres unmarked) [TG-6]	9 µM
		> 50 µM	> 50 µM	> 50 µM	> 7.5 µM	C=CCOc1c(C)c(C)c2c(c1C)CCC(C)(COc1ccc(/C=C3\SC(=O)N(CC(=O)OC)C3=O)cc1)O2 (centres unmarked) [TG-9]	> 50 µM
		2.2 ± 0.2 µM	3.1 ± 0.4 µM	6 ± 0.3 µM	> 7.5 µM	Cc1c(C)c2c(c(C)c1OC/C=C/c1ccccc1)CCC(C)(COc1ccc(/C=C3\SC(=O)NC3=O)cc1Br)O2 (centres unmarked) [TG-11]	
		14 ± 1.1 µM	18 ± 0.9 µM	18 ± 1.3 µM	3.6 µM	Cc1c(C)c2c(c(C)c1OCc1ccccc1)CCC(C)(COc1ccc(/C=C3\SC(=O)NC3=O)cc1)O2 (centres unmarked) [TG-12]	
		4.5 ± 0.4 µM	4.8 ± 0.4 µM	9 ± 1 µM	7 µM	CC(C)=CCOc1c(C)c(C)c2c(c1C)CCC(C)(COc1ccc(/C=C3\SC(=O)NC3=O)cc1)O2 (centres unmarked) [TG-14]	
		16 ± 0.5 µM	18 ± 0.9 µM	12 ± 0.9 µM	3.8 µM	O=C1NC(=O)/C(=C/c2ccc(OCC3CCc4ccccc4C3)cc2)S1 (centres unmarked) [TG-15]	
		6.5 ± 0.5 µM	4.8 ± 0.5 µM	4.7 ± 0.2 µM	5.6 µM	COc1cc(/C=C2\SC(=O)NC2=O)ccc1OCC1(C)CCc2c(C)c(OCC=C(C)C)c(C)c(C)c2O1 (centres unmarked) [TG-16]	
		2.6 ± 0.3 µM	3.1 ± 0.4 µM	4.8 ± 0.3 µM	3.2 µM	CC(C)=CCOc1c(C)c(C)c2c(c1C)CCC(C)(COc1ccc(/C=C3\SC(=O)NC3=O)cc1C)O2 (centres unmarked) [TG-17]	
		2.1 ± 0.2 µM	2.7 ± 0.4 µM	5 ± 0.5 µM	> 7.5 µM	C=CCOc1c(C)c(C)c2c(c1C)CCC(C)(COc1ccc(/C=C3\SC(=O)NC3=O)cc1Br)O2 (centres unmarked) [TG-27]	
		4 ± 0.3 µM	4.4 ± 0.3 µM	5.2 ± 0.5 µM	2.3 µM	C=CCOc1c(C)c(C)c2c(c1C)CCC(C)(COc1ccc(/C=C3\SC(=O)NC3=O)cc1OC)O2 (centres unmarked) [TG-28]	
		3 ± 0.3 µM	3.5 ± 0.6 µM	5.1 ± 0.4 µM	3.6 µM	C=CCOc1c(C)c(C)c2c(c1C)CCC(C)(COc1ccc(/C=C3\SC(=O)NC3=O)cc1C)O2 (centres unmarked) [TG-29]	
		2.7 ± 0.3 µM	3.4 ± 0.5 µM	6 ± 0.4 µM	7.2 µM	CC(C)=CCOc1c(C)c(C)c2c(c1C)CCC(C)(COc1ccc(/C=C3\SC(=O)NC3=O)cc1F)O2 (centres unmarked) [TG-30]	
		6.5 ± 0.5 µM	6.6 ± 0.6 µM	5 ± 0.4 µM	> 7.5 µM	CC(C)=CCOc1c(C)c(C)c2c(c1C)CCC(C)(COc1ccc(/C=C3\SC(=O)NC3=O)cc1-c1ccc(F)cc1)O2 (centres unmarked) [TG-32]	
		2 ± 0.2 µM	2.8 ± 0.4 µM	4.4 ± 0.4 µM	2.7 µM	CC(C)=CCOc1c(C)c(C)c2c(c1C)CCC(C)(COc1c(Br)cc(/C=C3\SC(=O)NC3=O)cc1Br)O2 (centres unmarked) [TG-34]	
